Reference: PubChem BioAssay (NCI)
Values joined by “and” are separate entries in the source; they are usually repeats but may differ in a detail not shown here. Equal entries are not always repeated.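 Briefly, cells in 96-well plates were exposed to five compound concentrations for 48 h, and endpoints were estimated by linear interpolation. Here, GI50 denotes the concentration required for 50% inhibition of growth. TGI denotes the concentration required for complete inhibition of growth.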

Legend:
Assay in all cases: growth of human tumour cells (NCI), 48 h
RXF 393 renal = system: RXF 393 renal
MCF7 breast = system: MCF7 breast
EKVX NSCLC = system: EKVX NSCLC
OVCAR-3 ovarian = system: OVCAR-3 ovarian
TK-10 renal = system: TK-10 renal
UACC-62 melanoma = system: UACC-62 melanoma
U251 CNS = system: U251 CNS
CAKI-1 renal = system: CAKI-1 renal
786-0 renal = system: 786-0 renal
SN12C renal = system: SN12C renal

Compound	GI50 (RXF 393 renal) [µM]	TGI (RXF 393 renal) [µM]	GI50 (MCF7 breast) [µM]	TGI (MCF7 breast) [µM]	GI50 (EKVX NSCLC) [µM]	TGI (EKVX NSCLC)	GI50 (OVCAR-3 ovarian) [µM]	TGI (OVCAR-3 ovarian) [µM]	GI50 (TK-10 renal) [µM]	TGI (TK-10 renal) [µM]	GI50 (UACC-62 melanoma) [µM]	TGI (UACC-62 melanoma) [µM]	GI50 (U251 CNS) [µM]	TGI (U251 CNS) [µM]	GI50 (CAKI-1 renal) [µM]	TGI (CAKI-1 renal) [µM]	GI50 (786-0 renal) [µM]	TGI (786-0 renal) [µM]	GI50 (SN12C renal) [µM]	TGI (SN12C renal) [µM]
Cc1cc(N2CCC(N3CCCC3)CC2)nc(/N=C(\N)Nc2ccc(Cl)c(Cl)c2)n1	1.62	3.09	1.29	2.69	1.71	4.4 µM	1.72	3.26	1.93	3.72	1.9	3.6	1.79	3.35	1.29	2.68	1.82	3.41	2.7	10.9
Cc1cc(C)c2nc3c(c(C(O)C4CCCCN4)c2c1)CC/C3=C\c1ccc(Cl)cc1 (stereo unspecified)	–	> 100	–	> 100	–	> 100 µM	–	> 100	–	> 100	–	> 100	–	> 100	–	> 100	–	> 100	–	> 100
Cc1ccc(-c2nc(NCCOCCOCCN)nc(N3CCN(c4ccccn4)CC3)n2)cc1	13	28.2	12.7	26.9	15.8	33 µM	16.9	31.2	18.5	34.9	5.99	13.7	14.2	33	16.5	33.7	12.4	26.8	14	29.5
CNC(=O)CCN1CCN(CC/C=C2\c3ccccc3Sc3ccc(Cl)cc32)CC1	3.55	20.4	4.91	18.9	14.5	30.6 µM	11.8	27	14	29.2	1.92	3.62	7.22	20.7	3.42	19.7	12.1	27.4	12.1	26.6
N[C@@H]1CCCN(c2c(Br)cnc3[nH]cc(NC(=O)C4CC4)c23)C1	0.0618	0.27	0.123	> 100	2.32	> 31.6 µM	0.364	> 100	0.606	> 68.6	0.464	> 100	7.96	> 100	0.518	6	0.22	0.709	1.78	> 100
NC(=NCCCCCCN=C(N)/N=C(\N)Nc1ccc(Cl)cc1)/N=C(\N)Nc1ccc(Cl)cc1	1.88	8.11	1.6	5.49	1.53	8.3 µM	1.45	3.55	2.13	8.9	1.28	4.32	1.07	2.77	1.33	4.79	1.6	5.8	1.27	5.77
O=C1/C(=C/c2ccc(Cl)cc2)CCC1CNc1ccc(Cl)cc1 (stereo unspecified)	–	26.4	–	10.8	–	38.4 µM	–	21.5	–	21.8	–	7.29	–	29.6	–	28.9	–	6.73	–	29.4
CC1(C)CC(O)CC(C)(C)N1O	–	> 100	–	> 100	–	> 100 µM	–	> 100	–	> 100	–	> 100	> 100	> 100	–	> 100	–	> 100	–	> 100
COc1cc(N=Nc2cc(Cc3ccc(N(C)C)cc3)c(N)cc2N(C)C)c2ncccc2c1	1.08	2.49	0.21	0.855	0.332	1.98 µM	0.0406	1.08	1.62	4.36	0.42	1.83	0.466	1.94	0.408	2.37	1.01	2.25	0.649	2.32
O=c1c(I)c[nH]cc1I	> 100	> 100	> 100	> 100	> 100	> 100 µM	> 100	> 100	> 100	> 100	> 100	> 100	> 100	> 100	> 100	> 100	> 100	> 100	> 100	> 100
C=C1C(=O)OC2CC(C)C(/C=C/C(C)=O)=CCC12 (stereo unspecified)	–	> 100	–	> 100	–	> 100 µM	–	> 100	–	> 100	–	> 100	–	> 100	–	> 100	–	> 100	–	> 100
O=c1[nH]c2cc(Cl)ccc2nc1/C(=N\Nc1ccccc1)C(O)c1ccc2c(c1)OCO2 (stereo unspecified)	–	> 100	–	> 100	–	> 100 µM	–	> 100	–	> 100	–	> 100	–	> 100	–	> 100	–	> 100	–	> 100
Cc1nc2c(C)ccc([N+](=O)[O-])c2c(NCCCN(C)C)c1C	–	> 100	–	> 100	–	> 100 µM	–	> 100	–	> 55.7	–	> 100	–	> 100	–	> 100	–	> 100	–	> 100
COC(=O)c1c(C)nc(C)c2c1C(=O)C(Br)=C(NCc1ccccc1)C2=O	3.08	9.69	1.3	3.29	2.12	5.35 µM	2.27	6.16	10.1	21.9	1.41	2.93	2.74	8.34	5.66	18.7	4.65	16.3	1.49	3.45
Cc1cc(NC(=O)NCc2ccc(N3C(N)=NC(N)=NC3(C)C)cc2)ccc1S(=O)(=O)F	51.2	> 100	1.93	> 100	13.8	> 100 µM	8.4	> 81.9	5.5	> 100	0.998	> 100	0.832	> 100	> 49.3	> 100	5.21	> 100	0.833	> 100
CCCCNc1ncnc2c1cnn2-c1ccccc1	1.97	8.26	2.11	> 100	7.72	> 86.6 µM	1.46	5.16	5.35	> 57.9	5.04	> 100	2.84	> 61.8	2.09	> 40.8	8.9	53	6.18	> 100
CCSC[C@@H]1C[C@](O)(c2ccccc2)[C@@H](c2ccccc2)O1	76.2	> 100	74.6	> 100	59.2	> 100 µM	70.1	> 100	> 91.7	> 100	69.2	> 100	99.1	> 100	> 83.8	> 100	> 100	> 100	> 94.5	> 100
Clc1ccc(C=Nc2ccc(-c3nc4ccccc4[nH]3)cc2)cc1	> 100	> 100	> 100	> 100	> 100	> 100 µM	> 100	> 100	> 100	> 100	> 100	> 100	65.1	> 100	> 100	> 100	> 100	> 100	> 100	> 100
COc1cc2ncn(-c3cc(OCc4ccccc4C(F)(F)F)c(C(N)=O)s3)c2cc1OC	0.102	4.02	0.0282	> 25	3.69	> 25 µM	0.0838	0.794	3.29	12.8	0.168	> 8.39	0.206	> 19.3	3.88	> 25	1.56	22.5	2.67	> 25
CCn1c(-c2nonc2N)nc2ccccc21	16.7	> 25	> 25	> 25	20.9	> 25 µM	> 25	> 25	7.32	> 25	> 25	> 25	> 25	> 25	> 25	> 25	> 25	> 25	> 25	> 25
N#C/C(=C\c1ccc(O)cc1)C(N)=O	–	> 100	–	> 100	–	97.8 µM and > 100 µM	–	> 100	–	> 100	–	> 100	–	> 100	–	> 100	–	> 100	–	> 100
O=[N+]([O-])c1ccccc1N=Nc1c(O)[nH]c2c(Cl)cccc12	–	98.1	–	> 89.6	–	> 61.5 µM	–	> 85.3	–	> 54.9	–	> 82.1	–	> 51.5	–	26.3	–	31.1	–	> 57.7
